Source: the NIST ThermoML archive (doi:10.1016/j.fluid.2007.04.030)
Numbers after ± are expanded uncertainties.

Key:
[1] = 101 kPa, Liquid
[2] = xn = mol fraction of the nth substance listed; conditions: 101 kPa, Liquid, x2 = 0

Compound	mass density ([1]; 283.15 K)	mass density ([1]; 288.15 K)	mass density ([1]; 293.15 K)	mass density ([1]; 298.15 K)	mass density ([1]; 303.15 K)	mass density ([1]; 308.15 K)	mass density ([1]; 313.15 K)	mass density ([1]; 318.15 K)	mass density ([1]; 323.15 K)	mass density ([1]; 328.15 K)	mass density ([1]; 333.15 K)	mass density ([2]; 283.15 K)	mass density ([2]; 288.15 K)	mass density ([2]; 293.15 K)	mass density ([2]; 298.15 K)	mass density ([2]; 303.15 K)	mass density ([2]; 308.15 K)	mass density ([2]; 313.15 K)	mass density ([2]; 318.15 K)	mass density ([2]; 323.15 K)	further results
CCCCO [butan-1-ol]	817.15 ± 0.54 kg/m3	813.38 ± 0.54 kg/m3	809.59 ± 0.55 kg/m3	805.77 ± 0.56 kg/m3	801.92 ± 0.57 kg/m3	798.05 ± 0.58 kg/m3	794.14 ± 0.58 kg/m3	790.19 ± 0.59 kg/m3	786.19 ± 0.6 kg/m3	782.14 ± 0.61 kg/m3	778.03 ± 0.62 kg/m3	–	–	–	–	–	–	–	–	–	–
CCO [ethanol]	797.96 ± 0.57 kg/m3	793.71 ± 0.58 kg/m3	789.44 ± 0.59 kg/m3	785.15 ± 0.6 kg/m3	780.83 ± 0.6 kg/m3	776.48 ± 0.61 kg/m3	772.09 ± 0.62 kg/m3	767.65 ± 0.63 kg/m3	763.17 ± 0.64 kg/m3	758.63 ± 0.65 kg/m3	754.01 ± 0.66 kg/m3	–	–	–	–	–	–	–	–	–	–
CCO [ethanol] + COc1cc2c(cc1O)CC1c3c(cc(O)c(OC)c3-2)CCN1C	–	–	–	–	–	–	–	–	–	–	–	797.96 ± 0.57 kg/m3	793.71 ± 0.58 kg/m3	789.44 ± 0.59 kg/m3	785.15 ± 0.6 kg/m3	780.83 ± 0.6 kg/m3	776.48 ± 0.61 kg/m3	772.09 ± 0.62 kg/m3	767.65 ± 0.63 kg/m3	763.17 ± 0.64 kg/m3	mass density ([2]; 328.15 K): 758.63 ± 0.65 kg/m3; mass density ([2]; 333.15 K): 754.01 ± 0.66 kg/m3
CCCCCCO [hexan-1-ol]	827.82 ± 2.1 kg/m3	824.25 ± 2.1 kg/m3	820.65 ± 2.1 kg/m3	817.03 ± 2.1 kg/m3	813.39 ± 2.1 kg/m3	809.71 ± 2.1 kg/m3	806 ± 2.1 kg/m3	802.27 ± 2.1 kg/m3	798.49 ± 2.1 kg/m3	794.67 ± 2.1 kg/m3	790.8 ± 2.1 kg/m3	–	–	–	–	–	–	–	–	–	–
CCCCCCO [hexan-1-ol] + COc1cc2c(cc1O)CC1c3c(cc(O)c(OC)c3-2)CCN1C	–	–	–	–	–	–	–	–	–	–	–	827.82 ± 2.1 kg/m3	824.25 ± 2.1 kg/m3	820.65 ± 2.1 kg/m3	817.03 ± 2.1 kg/m3	813.39 ± 2.1 kg/m3	809.71 ± 2.1 kg/m3	806 ± 2.1 kg/m3	802.27 ± 2.1 kg/m3	798.49 ± 2.1 kg/m3	mass density ([2]; 328.15 K): 794.67 ± 2.1 kg/m3; mass density ([2]; 333.15 K): 790.8 ± 2.1 kg/m3
CO [methanol]	801.08 ± 0.56 kg/m3	796.41 ± 0.57 kg/m3	791.71 ± 0.58 kg/m3	787.01 ± 0.59 kg/m3	782.29 ± 0.6 kg/m3	777.55 ± 0.61 kg/m3	772.78 ± 0.62 kg/m3	767.97 ± 0.63 kg/m3	763.12 ± 0.64 kg/m3	758.23 ± 0.65 kg/m3	753.29 ± 0.66 kg/m3	–	–	–	–	–	–	–	–	–	–
CO [methanol] + COc1cc2c(cc1O)CC1c3c(cc(O)c(OC)c3-2)CCN1C	–	–	–	–	–	–	–	–	–	–	–	801.08 ± 0.56 kg/m3	796.41 ± 0.57 kg/m3	791.71 ± 0.58 kg/m3	787.01 ± 0.59 kg/m3	782.29 ± 0.6 kg/m3	777.55 ± 0.61 kg/m3	772.78 ± 0.62 kg/m3	767.97 ± 0.63 kg/m3	763.12 ± 0.64 kg/m3	mass density ([2]; 328.15 K): 758.23 ± 0.65 kg/m3; mass density ([2]; 333.15 K): 753.29 ± 0.66 kg/m3
CCCCCCCCO [octan-1-ol]	832.13 ± 0.54 kg/m3	828.71 ± 0.55 kg/m3	825.27 ± 0.56 kg/m3	821.81 ± 0.56 kg/m3	818.33 ± 0.57 kg/m3	814.84 ± 0.58 kg/m3	811.31 ± 0.58 kg/m3	807.76 ± 0.59 kg/m3	804.19 ± 0.6 kg/m3	800.58 ± 0.6 kg/m3	796.93 ± 0.61 kg/m3	–	–	–	–	–	–	–	–	–	–
CCCCCCCCO [octan-1-ol] + COc1cc2c(cc1O)CC1c3c(cc(O)c(OC)c3-2)CCN1C	–	–	–	–	–	–	–	–	–	–	–	832.13 ± 0.54 kg/m3	828.71 ± 0.55 kg/m3	825.27 ± 0.56 kg/m3	821.81 ± 0.56 kg/m3	818.33 ± 0.57 kg/m3	814.84 ± 0.58 kg/m3	811.31 ± 0.58 kg/m3	807.76 ± 0.59 kg/m3	804.19 ± 0.6 kg/m3	mass density ([2]; 328.15 K): 800.58 ± 0.6 kg/m3; mass density ([2]; 333.15 K): 796.93 ± 0.61 kg/m3
CCCCCO [pentan-1-ol]	822.42 ± 0.69 kg/m3	818.79 ± 0.7 kg/m3	815.13 ± 0.7 kg/m3	811.45 ± 0.71 kg/m3	807.74 ± 0.72 kg/m3	804.01 ± 0.72 kg/m3	800.24 ± 0.73 kg/m3	796.43 ± 0.73 kg/m3	792.57 ± 0.74 kg/m3	788.67 ± 0.75 kg/m3	784.72 ± 0.75 kg/m3	–	–	–	–	–	–	–	–	–	–
CCCCCO [pentan-1-ol] + COc1cc2c(cc1O)CC1c3c(cc(O)c(OC)c3-2)CCN1C	–	–	–	–	–	–	–	–	–	–	–	822.42 ± 0.69 kg/m3	818.79 ± 0.7 kg/m3	815.13 ± 0.7 kg/m3	811.45 ± 0.71 kg/m3	807.74 ± 0.72 kg/m3	804.01 ± 0.72 kg/m3	800.24 ± 0.73 kg/m3	796.43 ± 0.73 kg/m3	792.57 ± 0.74 kg/m3	mass density ([2]; 328.15 K): 788.67 ± 0.75 kg/m3; mass density ([2]; 333.15 K): 784.72 ± 0.75 kg/m3
CCCO [propan-1-ol]	811.57 ± 1.2 kg/m3	807.62 ± 1.2 kg/m3	803.63 ± 1.2 kg/m3	799.62 ± 1.2 kg/m3	795.58 ± 1.2 kg/m3	791.49 ± 1.2 kg/m3	787.37 ± 1.2 kg/m3	783.22 ± 1.2 kg/m3	779.01 ± 1.2 kg/m3	774.73 ± 1.2 kg/m3	770.39 ± 1.2 kg/m3	–	–	–	–	–	–	–	–	–	–
CCCO [propan-1-ol] + COc1cc2c(cc1O)CC1c3c(cc(O)c(OC)c3-2)CCN1C	–	–	–	–	–	–	–	–	–	–	–	811.57 ± 1.2 kg/m3	807.62 ± 1.2 kg/m3	803.63 ± 1.2 kg/m3	799.62 ± 1.2 kg/m3	795.58 ± 1.2 kg/m3	791.49 ± 1.2 kg/m3	787.37 ± 1.2 kg/m3	783.22 ± 1.2 kg/m3	779.01 ± 1.2 kg/m3	mass density ([2]; 328.15 K): 774.73 ± 1.2 kg/m3; mass density ([2]; 333.15 K): 770.39 ± 1.2 kg/m3
CC(C)O [propan-2-ol]	793.31 ± 0.74 kg/m3	789.22 ± 0.75 kg/m3	785.08 ± 0.75 kg/m3	780.87 ± 0.76 kg/m3	776.6 ± 0.77 kg/m3	772.25 ± 0.77 kg/m3	767.81 ± 0.78 kg/m3	763.28 ± 0.79 kg/m3	758.64 ± 0.8 kg/m3	753.88 ± 0.8 kg/m3	749.01 ± 0.81 kg/m3	–	–	–	–	–	–	–	–	–	–
CC(C)O [propan-2-ol] + COc1cc2c(cc1O)CC1c3c(cc(O)c(OC)c3-2)CCN1C	–	–	–	–	–	–	–	–	–	–	–	793.31 ± 0.74 kg/m3	789.22 ± 0.75 kg/m3	785.08 ± 0.75 kg/m3	780.87 ± 0.76 kg/m3	776.6 ± 0.77 kg/m3	772.25 ± 0.77 kg/m3	767.81 ± 0.78 kg/m3	763.28 ± 0.79 kg/m3	758.64 ± 0.8 kg/m3	mass density ([2]; 328.15 K): 753.88 ± 0.8 kg/m3; mass density ([2]; 333.15 K): 749.01 ± 0.81 kg/m3
